# Values of other authors as cited in PMC11767451, “Novel Approaches to Monitor Pharmacokinetics and Metabolism of Gemcitabine-Ibandronate Conjugate in Mice and Dogs” (Molecules, 2025).
# System: bone-associated cancer cells
# Design: method as in PMID 30413669
# Conditions: cited from earlier work
structure (smiles),measurement,setting,value
CC(O)(P(=O)(O)O)P(=O)(O)OP(=O)(O)OC[C@H]1O[C@@H](n2ccc(N)nc2=O)[C@@H](O)[C@@H]1O (stereo partly drawn) [MBC-11],bone localized effects compared to free cytarabine,clinical trials,2–20 fold
same,metabolic activity of bone-associated cancer cells,in humans,significant reductions
same,tolerability,in humans,well tolerated
